Experimental data as given in ChEMBL document CHEMBL1144262, “Identification of putative metabolites of docosahexaenoic acid as potent PPARgamma agonists and antidiabetic agents” (Bioorg Med Chem Lett, 2005).

Tests used:
[1] = In vivo body weight gain was observed in db/db mouse 4 weeks after oral administration (once daily) of 100 mg/kg of compound; (n=6); type: ADME, organism-based; parameters: dose 100 mg/kg, route oral; conditions: 672 h
[2] = In vivo triglyceride level was observed in ZDF rats 2 weeks after oral administration (once daily) of 30 mg/kg of compound; (n=6); conditions: rat, 336 h
[3] = In vivo body weight gain was observed in ZDF rats 2 weeks after oral administration (once daily) of 30 mg/kg of compound; (n=6); conditions: rat, 336 h
[4] = In vivo blood glucose level was observed in ZDF rats 2 weeks after oral administration (once daily) of 30 mg/kg of compound; (n=6); conditions: rat, 336 h
[5] = In vivo triglyceride level was observed in db/db mouse 4 weeks after oral administration (once daily) of 100 mg/kg of compound; (n=6); type: ADME, organism-based; parameters: dose 100 mg/kg, route oral; conditions: 672 h
[6] = In vivo blood glucose level was observed in db/db mouse 4 weeks after oral administration (once daily) of 100 mg/kg of compound; (n=6); type: ADME, organism-based; parameters: dose 100 mg/kg, route oral; conditions: 672 h

`CCc1ccc(CCOc2ccc(CC3SC(=O)NC3=O)cc2)nc1` (stereo unspecified) [PIOGLITAZONE] showed an Activity [1] of 15.5 g, a Triglyceride level [2] of 109 mg/dL and an Activity [3] of 96.6 g. The Glucose level [4] was 174 mg/dL, the Triglyceride level [5] was 73 mg/dL and the Glucose level [6] was 432 mg/dL.
